Reference: ChEMBL document CHEMBL1140165, “Rotationally constrained 2,4-diamino-5,6-disubstituted pyrimidines: a new class of histamine H4 receptor antagonists with improved druglikeness and in vivo efficacy in pain and inflammation models” (J Med Chem, 2008)
Activity calls are given as the source filed them. The calls are words filed in the database; no cut-off is given here.

Tests used:
[1] = target: Histamine H4 receptor (Rattus norvegicus) (UniProt Q91ZY1); assay: Antagonist activity at rat histamine H4 receptor expressed in HEK293 cells assessed as inhibition of histamine-induced intracellular calcium elevation by FLIPR assay relative to histamine; format: functional, cell-based
Sequence of Histamine H4 receptor (Rattus norvegicus) (Q91ZY1 whole entry): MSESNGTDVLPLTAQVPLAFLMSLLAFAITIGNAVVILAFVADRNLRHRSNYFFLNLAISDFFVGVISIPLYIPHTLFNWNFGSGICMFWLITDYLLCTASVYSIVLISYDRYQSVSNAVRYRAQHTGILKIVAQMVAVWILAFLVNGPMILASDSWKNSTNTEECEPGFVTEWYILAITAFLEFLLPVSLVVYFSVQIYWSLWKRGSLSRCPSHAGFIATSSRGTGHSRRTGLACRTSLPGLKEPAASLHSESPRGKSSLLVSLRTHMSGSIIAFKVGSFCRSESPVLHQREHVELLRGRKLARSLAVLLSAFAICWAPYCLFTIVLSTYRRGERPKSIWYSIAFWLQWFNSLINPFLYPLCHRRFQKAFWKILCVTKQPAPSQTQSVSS

Liver microsomes [2] = assay: Metabolic stability in rat liver microsomes; format: ADME, Microsome
Histamine H4 receptor [3] = target: T1, Histamine H4 receptor (Homo sapiens, UniProt Q9H3N8); assay: Displacement of [3H]histamine from human histamine H4 receptor expressed in HEK293 cells; format: cell-based; conditions: read-out: pKi (converted)
Cytochrome P450 2D6 = Cytochrome P450 2D6 (Homo sapiens, UniProt P10635); assay: Inhibition of CYP2D6 upto 10 uM; format: ADME
Sequence of Cytochrome P450 2D6 (P10635 whole entry): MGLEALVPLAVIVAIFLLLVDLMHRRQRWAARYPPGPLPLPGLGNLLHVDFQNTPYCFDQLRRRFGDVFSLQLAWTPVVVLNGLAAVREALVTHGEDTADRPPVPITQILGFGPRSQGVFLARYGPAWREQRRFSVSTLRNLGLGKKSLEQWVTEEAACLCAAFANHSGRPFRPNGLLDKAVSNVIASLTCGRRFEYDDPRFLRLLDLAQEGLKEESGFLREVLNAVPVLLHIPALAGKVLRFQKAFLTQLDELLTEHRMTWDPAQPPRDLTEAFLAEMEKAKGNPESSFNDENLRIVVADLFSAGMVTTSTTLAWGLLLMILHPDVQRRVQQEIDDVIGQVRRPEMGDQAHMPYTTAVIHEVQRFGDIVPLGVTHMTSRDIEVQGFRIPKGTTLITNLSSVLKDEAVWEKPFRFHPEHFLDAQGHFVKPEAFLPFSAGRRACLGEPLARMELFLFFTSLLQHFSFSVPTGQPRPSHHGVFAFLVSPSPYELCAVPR

[4] = Metabolic stability in mouse liver microsomes; format: ADME, Microsome
Cytochrome P450 2C9 = Cytochrome P450 2C9 (Homo sapiens, UniProt P11712); assay: Inhibition of CYP2C9 upto 10 uM; format: ADME
Sequence of Cytochrome P450 2C9 (P11712 whole entry): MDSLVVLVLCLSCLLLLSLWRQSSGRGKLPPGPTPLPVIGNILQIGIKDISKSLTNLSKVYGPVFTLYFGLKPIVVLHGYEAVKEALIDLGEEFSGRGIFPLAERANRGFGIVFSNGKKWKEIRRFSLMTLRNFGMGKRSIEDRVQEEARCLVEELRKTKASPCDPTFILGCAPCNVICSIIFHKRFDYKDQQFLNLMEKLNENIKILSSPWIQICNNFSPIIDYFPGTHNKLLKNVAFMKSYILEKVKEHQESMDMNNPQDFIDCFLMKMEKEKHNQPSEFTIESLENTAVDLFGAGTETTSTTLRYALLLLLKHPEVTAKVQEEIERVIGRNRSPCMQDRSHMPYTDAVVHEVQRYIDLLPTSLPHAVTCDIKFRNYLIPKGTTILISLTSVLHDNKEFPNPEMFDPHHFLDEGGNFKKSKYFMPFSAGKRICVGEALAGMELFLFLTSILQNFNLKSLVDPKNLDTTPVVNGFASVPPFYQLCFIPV

Histamine H4 receptor [5] = target: T1, Histamine H4 receptor; conditions: HEK293
Histamine H4 receptor [6] = target: T2, Histamine H4 receptor (Rattus norvegicus, UniProt Q91ZY1); assay: Displacement of [3H]histamine from rat histamine H4 receptor expressed in HEK293 cells; format: cell-based
T2 sequence (Q91ZY1 whole entry): as the sequence (Q91ZY1 whole entry) above

Liver microsomes [7] = assay: Metabolic stability in human liver microsomes; format: ADME, Microsome
Cytochrome P450 3A4 = Cytochrome P450 3A4 (Homo sapiens, UniProt P08684); assay: Inhibition of CYP3A4 upto 10 uM; format: ADME
Sequence of Cytochrome P450 3A4 (P08684 whole entry): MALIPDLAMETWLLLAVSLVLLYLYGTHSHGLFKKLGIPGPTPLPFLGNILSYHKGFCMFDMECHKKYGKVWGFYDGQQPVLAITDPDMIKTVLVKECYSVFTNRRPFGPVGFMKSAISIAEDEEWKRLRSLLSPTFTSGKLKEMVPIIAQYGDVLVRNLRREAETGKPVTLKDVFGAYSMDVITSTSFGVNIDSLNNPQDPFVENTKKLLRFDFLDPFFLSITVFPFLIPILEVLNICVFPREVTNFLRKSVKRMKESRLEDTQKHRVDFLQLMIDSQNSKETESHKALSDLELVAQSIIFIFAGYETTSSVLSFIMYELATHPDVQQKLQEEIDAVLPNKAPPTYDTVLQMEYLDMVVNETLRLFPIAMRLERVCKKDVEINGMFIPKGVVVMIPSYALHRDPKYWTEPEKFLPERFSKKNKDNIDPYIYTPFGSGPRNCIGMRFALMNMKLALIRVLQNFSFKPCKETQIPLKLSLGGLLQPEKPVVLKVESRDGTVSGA

[8] = Protein binding in human; format: ADME, organism-based; conditions: in vivo, read-out: PB (converted)
[9] = Protein binding in rat; format: ADME, organism-based; conditions: in vivo, read-out: PB (converted)
[10] = target: Histamine H4 receptor (Mus musculus) (UniProt Q91ZY2); assay: Antagonist activity at mouse histamine H4 receptor expressed in HEK293 cells assessed as inhibition of histamine-induced intracellular calcium elevation by FLIPR assay relative to histamine; format: functional, cell-based
Sequence of Histamine H4 receptor (Mus musculus) (Q91ZY2 whole entry): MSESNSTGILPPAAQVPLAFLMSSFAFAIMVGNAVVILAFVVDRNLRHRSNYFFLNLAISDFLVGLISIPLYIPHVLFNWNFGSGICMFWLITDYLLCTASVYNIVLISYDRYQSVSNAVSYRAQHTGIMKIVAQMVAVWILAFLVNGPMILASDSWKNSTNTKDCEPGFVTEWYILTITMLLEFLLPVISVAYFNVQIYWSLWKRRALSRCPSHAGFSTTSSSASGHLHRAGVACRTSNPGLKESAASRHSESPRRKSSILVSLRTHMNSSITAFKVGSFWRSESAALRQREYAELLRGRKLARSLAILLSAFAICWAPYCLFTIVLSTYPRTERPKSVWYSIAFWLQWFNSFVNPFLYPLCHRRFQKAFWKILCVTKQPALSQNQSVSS

Mus musculus [11] = assay: Inhibition of clobenpropit-induced itching in ip dosed CD1/ICR mouse assessed as blockade of scratching in hind paw for 25 mins pretreated 30 mins before clobenpropit challenge; format: functional
[12] = Selectivity ratio of Ki for human histamine H4 receptor to Ki for adrenergic alpha1 receptor
[13] = Selectivity ratio of Ki for human histamine H4 receptor to Ki for dopamine D2 receptor
Homo sapiens = organism: Homo sapiens; assay: Selectivity ratio of Ki for human histamine H4 receptor to Ki for human histamine H3 receptor
[14] = Ratio of drug level in brain to plasma in rat at 10 mg/kg, iv after 30 mins; format: ADME, organism-based; parameters: dose 10 mg/kg, route intravenous
Rattus norvegicus = assay: Antinociceptive efficacy in ip dosed spinal nerve ligated Sprague-Dawley rat assessed as reduction of neuropathic pain in paw; format: functional
[15] = Selectivity ratio of Ki for human histamine H4 receptor to Ki for 5HT1A receptor
[16] = Fractional bioavailability in rat at 10 mg/kg, iv and 10 mg/kg, po; format: ADME, organism-based; conditions: in vivo
BMMC = assay: Blockade of histamine-induced morphological changes in BALB/c mouse BMMC by flow cytometry; format: functional, cell-based
[17] = Selectivity ratio of Ki for human histamine H4 receptor to Ki for histamine H1 receptor
Mus musculus [18] = assay: Antiinflammatory activity against ip dosed BALB/c mouse assessed as inhibition of zymosan-induced peritonitis after 2 hrs pretreated 30 mins before zymosan challenge; format: functional
[19] = Selectivity ratio of Ki for human histamine H4 receptor to Ki for 5HT2A receptor
[20] = Half life in mouse at 2.5 mg/kg, iv; format: ADME, organism-based; parameters: dose 2.5 mg/kg, route intravenous; conditions: in vivo
[21] = Selectivity ratio of Ki for human histamine H4 receptor to Ki for histamine H2 receptor
[22] = Half life in rat at 10 mg/kg, iv; format: ADME, organism-based; parameters: dose 10 mg/kg, route intravenous; conditions: in vivo
[23] = Selectivity ratio of Ki for human histamine H4 receptor to Ki for 5HT1D receptor
[24] = Terminal volume of distribution in rat at 10 mg/kg, iv; format: ADME, organism-based; parameters: dose 10 mg/kg, route intravenous; conditions: in vivo, read-out: Vbeta
[25] = Blood clearance in rat at 10 mg/kg, iv; format: ADME, organism-based; parameters: dose 10 mg/kg, route intravenous; conditions: whole blood
Histamine H4 receptor [26] = target: T2, Histamine H4 receptor; assay: (§1) Antagonist activity at rat histamine H4 receptor expressed in HEK293 cells assessed as inhibition of histamine-induced intracellular calcium elevation by FLIPR assay; format: functional, cell-based
[27] = target: Histamine H4 receptor (Rattus norvegicus) (UniProt Q91ZY1); assay: as §1; format: functional, cell-based

| Structure (SMILES) | Efficacy [1] | Stability (Liver microsomes [2]) | Ki (Histamine H4 receptor [3]) | Activity (Cytochrome P450 2D6) | Stability [4] | Activity (Cytochrome P450 2C9) | pKb (Histamine H4 receptor [5]) | Ki (Histamine H4 receptor [6]) | Stability (Liver microsomes [7]) | Activity (Cytochrome P450 3A4) | fraction unbound [8] | fraction unbound [9] | EC50 (Histamine H4 receptor [26]) | Activity (BMMC) | also measured |
| --- | --- | --- | --- | --- | --- | --- | --- | --- | --- | --- | --- | --- | --- | --- | --- |
| CN1CCN(c2cc(-c3ccccc3)nc(N)n2)CC1 | 79% | 168 pmol/min/mg | 5.01 nM | Not Active | 119 pmol/min/mg | Not Active | 8.39 | 14.1 nM | 22 pmol/min/mg | Not Active | 0.51 | 0.35 | – | – | – |
| N#Cc1ccc(-c2cc(N3CCNCC3)nc(N)n2)cc1 | – | 26.9 pmol/min/mg | – | Not Active | 23.2 pmol/min/mg | Not Active | 8.08 | – | 6.2 pmol/min/mg | Not Active | 0.93 | 0.96 | – | – | Efficacy [10]: 54% |
| CN1CCN(c2cc(-c3ccc(C#N)cc3)nc(N)n2)CC1 | 64% | 94.5 pmol/min/mg | – | Not Active | 43.1 pmol/min/mg | Not Active | – | – | 25.9 pmol/min/mg | Not Active | 0.65 | 0.62 | – | Active | ED50 (Mus musculus [11]): 25 µmol/kg; Ratio Ki [12]: 330; Ratio Ki [13]: > 140; Ratio Ki (Homo sapiens): 30; Kp at 0.5 h [14]: 20; ED50 (Rattus norvegicus): 115 µmol/kg; Ratio Ki [15]: 1.2; bioavailability [16]: 31%; Ratio Ki [17]: > 170; ED50 (Mus musculus [18]): 66 µmol/kg; Ratio Ki [19]: 120; half-life [20]: 12 min; Ratio Ki [21]: > 260; half-life [22]: 24 min; Ratio Ki [23]: 3.5; Vd [24]: 7.1 L/kg; clearance [25]: 172 mL/min/kg |

Further lines, with some results ahead:

| Efficacy [1] | Stability (Liver microsomes [2]) | Ki (Histamine H4 receptor [3]) | Activity (Cytochrome P450 2D6) | Stability [4] | Activity (Cytochrome P450 2C9) | pKb (Histamine H4 receptor [5]) | Ki (Histamine H4 receptor [6]) | Stability (Liver microsomes [7]) | Activity (Cytochrome P450 3A4) | fraction unbound [8] | fraction unbound [9] | EC50 (Histamine H4 receptor [26]) | Structure (SMILES) | Activity (BMMC) | also measured |
| --- | --- | --- | --- | --- | --- | --- | --- | --- | --- | --- | --- | --- | --- | --- | --- |
| 52% | 104 pmol/min/mg | 52.5 nM | Not Active | 18.4 pmol/min/mg | Not Active | 7.58 | 9.12 nM | 45.9 pmol/min/mg | Not Active | 0.59 | 0.73 | 24 nM | Nc1nc2c(c(N3CCNCC3)n1)CCc1ccccc1-2 | – | – |
| 96% | 65.8 pmol/min/mg | 12.9 nM | Not Active | 43.6 pmol/min/mg | Not Active | 8.75 | 4.79 nM | 18.7 pmol/min/mg | Not Active | 0.72 | 0.31 | 20 nM | Nc1nc2c(c(N3CCNCC3)n1)Cc1ccccc1-2 | – | – |
| – | – | – | – | – | – | 7.6 | – | – | – | – | – | – | CN[C@@H]1CCN(c2nc(N)nc3c2CCCCCc2ccccc2-3)C1 | inactive | pKb [27]: 7.25 |
